According to PubChem BioAssay AID2060510 (Molecular Pharmacology Branch, DTP, NCI, 2025):
Several values for one entry are separate records, joined by “and”; a condition that tells them apart may be missing. Equal entries are not always repeated. Blank lines part the entries; values can stand above or below the molecule they belong to.

Tested on: 439559-082-T-J2-PDC spheroids viability
Assay: Anticancer human tumor 439559-082-T-J2-PDC patient-derived colon adenocarcinoma cell line growth inhibition [GQUAD]
Details: for viability, T/C: stronger effect = lower value
Description: DNA G-quadruplex Stabilizer Agents in Combinations in Complex Spheroids
A high-throughput screen of multi-cell type tumor spheroids was designed to identify active combinations of DNA G-quadruplex stabilizer agents and targeted small molecules. Complex spheroids include a stromal component modeled by human endothelial cells (HUVEC) and fibroblasts modeled by human mesenchymal stem cells (MSCs). The concentration ranges selected for each drug and investigational agent were based upon clinically achievable concentrations if the clinical Cmax of the agent was known.
Compounds. The drugs and investigational agents: pidnarulex (CX-5461; NSC782164), APTO-253 (NSC789042), BRACO-19 (NSC847499), peposertib (NSC802822), ceralasertib (NSC780249), elimusertib (NSC800525), camonsertib (NSC841442), AZD-1390 (NSC803789), olaparib (NSC753686), talazoparib (NSC767125), ART-558 (NSC835418), sotorasib (NSC818433), MRTX-1133 (NSC836407), SN-38 (NSC673596), topotecan (NSC609699), etoposide (NSC141540), doxorubicin (NSC123127), gemcitabine (NSC613327), 5-fluorouracil (NSC19893), paclitaxel (NSC125973), vemurafenib (NSC761431), panobinostat (NSC761190), R-306465 (JNJ-16241199; NSC773264), adavosertib (NSC754352), TP-3654 (NSC805149), carboplatin (NSC241240), KSQ-4279 (NSC840948), and staurosporine (NSC755774) were obtained from the National Cancer Institute (NCI) Developmental Therapeutics Program Chemical Repository (34). The FDA-approved anticancer drug set is available from the NCI Developmental Therapeutics Program. […] The stock solutions were prepared in dimethyl sulfoxide (DMSO, Sigma-Aldrich, St. Louis, MO, cat. D2650) at 800-fold the tested concentration and stored at -70 degrees C prior to their use. All drugs and investigational agents were tested over a range starting from a high concentration at or near the clinical Cmax and decreasing in half-log increments. If the clinical Cmax for an agent had not been determined, the highest concentration tested was 10 microM.
2.3 Cell Culture. All cells were maintained in an incubator at 37 degrees C and 5% CO2 with 95% humidity. The PDC lines were cultured according to standard operating procedures established by the NCI PDMR. All PDCs were thawed and cultured in Matrigel-coated flasks prepared with a working solution of 1X Ham's F-12 nutrient mix, without supplementation (Invitrogen, cat. 11765054), 100 U/mL penicillin-streptomycin (Invitrogen, cat. 15140122), and 2.5% Matrigel (Corning Inc., cat. 354248) for the first three passages. The 857933-349-R-J2-PDC line was cultured in 6C/Colon 1B media, which includes advanced DMEM/F-12 (Thermo Fisher Scientific, cat. 12634028), 10 mM HEPES (Thermo Fisher Scientific, cat. 15630080), 1X GlutaMAX supplement (Thermo Fisher Scientific, cat. 35050061), 0.1 mg/mL primocin (InvivoGen, cat. ant-pm-2), 10% defined fetal bovine serum, heat inactivated (HyClone Laboratories Inc., cat. SH30070.03HI), 50% L-WRN conditioned media (ATCC, cat. CRL-3276), 1.25 mM N-Acetyl-L-cysteine (Sigma-Aldrich, cat. A9165), 10 mM nicotinamide (Sigma-Aldrich, cat. N0636), 1X B-27 supplement (Thermo Fisher Scientific, cat. 17504044), 1X N-2 supplement (Thermo Fisher Scientific, cat. 17502048), 10 microM Y-27632 dihydrochloride (Tocris Bioscience, cat. 1254), and 50 ng/mL human EGF recombinant protein (Thermo Fisher Scientific, cat. PHG0311). The 485176-168-R4-J1-PDC line was cultured in Panc media, which includes all 6C/Colon 1B media components plus 100 ng/mL human FGF-10 (Thermo Fisher Scientific, cat. 100-26), 500 nM SB-431542 (Selleckchem, cat. S1067), and gastrin (Tocris, cat. 3006).
[…]
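Also: spheroids exposed to the agents for 7 days before readout.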
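For viability, T/C in this document: percent of luminescence signal in DMSO vehicle wells taken as 100% viability.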

Structure (SMILES): C=CC(=O)N1CCN(c2nc(=O)n(-c3c(C)ccnc3C(C)C)c3nc(-c4c(O)cccc4F)c(F)cc23)C(C)C1 (centres undefined) + Cc1[nH]c2ccc(F)cc2c1-c1nc2c3cccnc3c3ncccc3c2[nH]1
- IC50 (curve of first compound, second compound 0.0316 µM): > 10 µM
- IC50 (curve of first compound, second compound 0.1 µM): > 10 µM
- IC50 (curve of first compound, second compound 0.316 µM): > 10 µM
- IC50 (curve of first compound, second compound 1 µM): > 10 µM
- IC50 (curve of first compound, second compound 3.16 µM): > 10 µM
- IC50 (curve of first compound, second compound 10 µM): > 10 µM
- viability, T/C (second compound 0.0316 µM, first compound 0.0316 µM): 106%
- viability, T/C (second compound 0.0316 µM, first compound 0.1 µM): 92.6%
- viability, T/C (second compound 0.0316 µM, first compound 0.316 µM): 99.3%
- viability, T/C (second compound 0.0316 µM, first compound 1 µM): 103%
- viability, T/C (second compound 0.0316 µM, first compound 3.16 µM): 109%
- viability, T/C (second compound 0.0316 µM, first compound 10 µM): 101%
- viability, T/C (second compound 0.1 µM, first compound 0.0316 µM): 103%
- viability, T/C (second compound 0.1 µM, first compound 0.1 µM): 95.5%
- viability, T/C (second compound 0.1 µM, first compound 0.316 µM): 101%
- viability, T/C (second compound 0.1 µM, first compound 1 µM): 95.4%
- viability, T/C (second compound 0.1 µM, first compound 3.16 µM): 112%
- viability, T/C (second compound 0.1 µM, first compound 10 µM): 96.5%
- viability, T/C (second compound 0.316 µM, first compound 0.0316 µM): 108%
- viability, T/C (second compound 0.316 µM, first compound 0.1 µM): 95.1%
- viability, T/C (second compound 0.316 µM, first compound 0.316 µM): 102%
- viability, T/C (second compound 0.316 µM, first compound 1 µM): 103%
- viability, T/C (second compound 0.316 µM, first compound 3.16 µM): 104%
- viability, T/C (second compound 0.316 µM, first compound 10 µM): 97.8%
- viability, T/C (second compound 1 µM, first compound 0.0316 µM): 89.3%
- viability, T/C (second compound 1 µM, first compound 0.1 µM): 103%
- viability, T/C (second compound 1 µM, first compound 0.316 µM): 93.4%
- viability, T/C (second compound 1 µM, first compound 1 µM): 93.8%
- viability, T/C (second compound 1 µM, first compound 3.16 µM): 100%
- viability, T/C (second compound 1 µM, first compound 10 µM): 88.7%
- viability, T/C (second compound 3.16 µM, first compound 0.0316 µM): 89.1%
- viability, T/C (second compound 3.16 µM, first compound 0.1 µM): 90.5%
- viability, T/C (second compound 3.16 µM, first compound 0.316 µM): 85.6%
- viability, T/C (second compound 3.16 µM, first compound 1 µM): 92.4%
- viability, T/C (second compound 3.16 µM, first compound 3.16 µM): 92.1%
- viability, T/C (second compound 3.16 µM, first compound 10 µM): 80.2%
- viability, T/C (second compound 10 µM, first compound 0.0316 µM): 64.6%
- viability, T/C (second compound 10 µM, first compound 0.1 µM): 73.1%
- viability, T/C (second compound 10 µM, first compound 0.316 µM): 84%
- viability, T/C (second compound 10 µM, first compound 1 µM): 76%
- viability, T/C (second compound 10 µM, first compound 3.16 µM): 79.3%
- viability, T/C (second compound 10 µM, first compound 10 µM): 80.3%

- IC50 (curve of compound): > 10 µM
Structure (SMILES): CC1COCCN1c1cc(C2(S(C)(=N)=O)CC2)nc(-c2ccnc3[nH]ccc23)n1 (centres undefined)
- viability, T/C (compound 0.0316 µM): 97.7% and 98.8% and 96.5%
- viability, T/C (compound 0.1 µM): 111% and 89.2% and 102%
- viability, T/C (compound 0.316 µM): 93.4% and 106% and 88.7%
- viability, T/C (compound 1 µM): 101% and 86.2% and 94%
- viability, T/C (compound 3.16 µM): 92.3% and 87.4% and 80.1%
- viability, T/C (compound 10 µM): 68.4% and 57.7% and 60.7%
